From article PMC11364845 (Scientific Reports, 2024)

Tests used:
[1] = system: prostate tumor-bearing TRAMP mice; settings: 30 min dynamic PET, n = 3/group
[2] = cited from earlier work

## OC[C@H]1OC(O)[C@H](F)[C@@H](O)[C@@H]1O (stereo partly drawn) [^18F-FDG, ^18F-fluorodeoxyglucose]
[1]
  Time-dependent blood distribution by dynamic PET: JV versus RO injection: consistent circulation
[2]; after cardiac administration
  Time to peak in circulation and distribute to half its concentration: ≤ 5 s
[2]
  Time to reach a plateau in tissues: ≤ 30 min
